Columns and labels:
MbPyIRS/tRNACUA pair = target: T1, MbPyIRS/tRNACUA pair (Methanosarcina barkeri, UniProt Q6WRH6); experiment: Expression of myoglobin-his6 (amber codon at position 4) in E. coli with the MbPyIRS/tRNACUA pair in the presence of the amino acid; type: cell-based; details: for incorporation by the MbPyIRS/tRNACUA pair (myoglobin-his6 purified by Ni-NTA chromatography): E. coli, 1 mM amino acid; for yield of full-length myoglobin-his6 purified by Ni-NTA chromatography: E. coli with pBKPylS and pMyo4TAGPylT-his6, amino acid added to log phase cells (1 mM for 1 and 2)
T1 construct: expressed in transfected cells; host or cells: E. coli DH10B transformed with pBKPylS and pMyo4TAGPylT-his6
Protocol: To investigate whether 1 and 2 are substrates for the MbPyIRS/tRNACUA pair, we transformed E. coli with pBKPylS10 (which encodes MbPyIRS) and pMyo4TAGPylT-his610 (which encodes MbtRNACUA and a C-terminally hexahistidine tagged myoglobin gene with an amber codon at position 4). We added 1 or 2 (1 mM) to log phase cells and induced myoglobin-his6 expression. […] This may reflect the greater flexibility of the carbamate linkage. The yield of protein containing 2 was not improved by efforts to evolve the enzyme but was increased 5-fold by increasing the concentration of 2 7.5 fold (Supplementary FIG. 2A).
To investigate if the carbamate linkage provides a general route to the incorporation of other functional groups suitable for bioconjugation, we synthesized a simple aliphatic azide 3 (2 steps, 80% yield, Supplementary Scheme 1 and Supplementary Methods).
To express sperm whale myoglobin with an incorporated unnatural amino acid, we transformed E. coli DH10B cells with pBKPylS and pMyo4TAGPylT-his6. Cells were recovered in 1 mL of LB media for 1 h at 37° C., before incubation (16 h, 37° C., 250 r.p.m.) in 100 mL of LB containing kanamycin (50 μg/mL) and tetracycline (25 μg/mL). 20 mL of this overnight culture was used to inoculate 500 mL of LB supplemented with kanamycin (25 μg/mL), tetracycline (12 μg/mL) and 2 mM of 2. Cells were grown (37° C., 250 r.p.m.), and protein expression was induced at OD600-0.6, by addition of arabinose to a final concentration of 0.2%. After 3 h of induction, cells were harvested. Proteins were extracted by sonication at 4° C. The extract was clarified by centrifugation (20 min, 21,000 g, 4° C.), 300 μL of Ni^2+-NTA beads (Qiagen) were added to the extract, the mixture was incubated with agitation for 1 h at 4° C. Beads were collected by centrifugation (10 min, 1000 g). The beads were twice resuspended in 50 mL wash buffer and spun down at 1000 g. Subsequently, the beads were resuspended in 20 ml of wash buffer and transferred to a column. Protein was eluted in 1 ml of wash buffer supplemented with 200 mM imidazole and was then re-buffered to 20 mM ammonium bicarbonate using a sephadex G25 column. The purified proteins were analysed by 4-12% SDS-PAGE.
E. coli DH10B cells containing pBKPylS and pMyo4TAGPylT were inoculated into LB containing kanamycin (50 μg/mL) and tetracycline (25 μg/mL). The cells were incubated with shaking overnight at 37° C. 200 μL of cells were inoculated into each of 3 mL LB aliquots containing kanamycin (25 μg/mL) and tetracycline (12 μg/mL) and supplemented with different concentrations (7.5 mM, 5 mM, 2.5 mM, 1 mM, 0.75 mM, 0.5 mM, 0.25 mM, 0.1 mM, 0 mM) of 2. After 3 h of incubation with shaking at 37° C., protein expression was induced by the addition of 30 μL of 20% arabinose. After 12 h of expression, cell were collected by centrifugation (16000 g, 5 min) of 1 mL of cell suspension. The cells were resuspended in 100 μL of NuPAGE SDS Sample buffer supplemented with 10% f3-mercaptoethanol, heated at 80° C. for 10 min and centrifuged at 16000 g for 10 min. The crude cell lysate was analysed by 4-12% SDS-PAGE. Western blots were performed with antibodies against the hexahistidine tag (Invitrogen AntiHis monoclonal Mouse antibody).

[1] = Labeling of myoglobin-his6 bearing 2 with azido-probes via copper catalysed [3+2] cycloaddition; details: biotin azide 5 or By3 azide 6; CuSO4/ascorbate/ligand, pH 8.3
Protocol: In control experiments myoglobin-his6 bearing 3 at position 4 was treated identically. After 18 h, the purified labeling reactions were probed (FIG. 2A).
Quantification of the ratio of biotin or By3 to protein in purified samples provides independent confirmation of the labeling efficiency (Supplementary Methods).
Protein was re-buffered to 100 mM sodium phosphate buffer (pH 8.3) and concentrated to 2.5 mg/mL. 100 mM stock solutions of CuSO4, sulfonated bathophenanthroline sodium salt (GFS Chemicals) and sodium ascorbate in water were prepared, pre-mixed and incubated at room temperature for 5 min. Myoglobin containing 2 (13.5 nmol) was reacted for 15 minutes at 25° C., then 4° C. for 18 h with the biotin azide (Quanta Biodesign) 5 or the By3 azide (Primetech LTD) 6 (50 equivalents, 10 mM in DMSO) and CuSO4 (1 mM)/ascorbate (1 mM)/ligand (2 mM)^20. After 18 h, the solutions were diluted to 1 mL and loaded onto an Illustra™ NAP-10 column. Proteins were eluted into 1.5 mL of 20 mM NH4HCO3, dialyzed overnight with 20 mM NH4HCO3, loaded onto PD10 and eluted into 3.5 mL 20 mM NH4HCO3. […] Protein concentration of the labeled samples were measured by BCA Protein Assay (Thermo Scientific). The Biotin Quantitation Kit (Thermo Scientific) was used to quantify biotin-conjugated protein in labeled samples, and the By3 absorbance at 550 nm was used to quantify purified By3-labeled protein. […]

T1 sequence (Q6WRH6 whole entry): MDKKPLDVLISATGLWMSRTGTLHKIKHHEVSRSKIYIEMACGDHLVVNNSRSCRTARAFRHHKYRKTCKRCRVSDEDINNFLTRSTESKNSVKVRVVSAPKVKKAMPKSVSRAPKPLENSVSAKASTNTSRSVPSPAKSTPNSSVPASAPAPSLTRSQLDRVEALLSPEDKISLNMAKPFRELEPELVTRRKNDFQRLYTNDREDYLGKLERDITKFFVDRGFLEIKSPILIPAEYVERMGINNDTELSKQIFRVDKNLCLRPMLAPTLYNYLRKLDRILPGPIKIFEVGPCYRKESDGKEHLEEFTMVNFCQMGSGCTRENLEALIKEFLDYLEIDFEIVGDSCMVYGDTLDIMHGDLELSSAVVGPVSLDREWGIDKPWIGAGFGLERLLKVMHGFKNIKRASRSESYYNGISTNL

## C#CCCC(=O)NCCCC[C@H](N)C(=O)O.O=C(O)C(F)(F)F [compound 1, (S)-2-amino-6-pent-4-ynamidohexanoic acid TFA salt]
MbPyIRS/tRNACUA pair
  incorporation by the MbPyIRS/tRNACUA pair (myoglobin-his6 purified by Ni-NTA chromatography): only background levels

## C#CCOC(=O)NCCCC[C@H](N)C(=O)O.O=C(O)C(F)(F)F [compound 2, (S)-2-amino-6-((prop-2-ynyloxy)carbonylamino)hexanoic acid TFA salt]
MbPyIRS/tRNACUA pair
  yield of full-length myoglobin-his6 purified by Ni-NTA chromatography: 2 mg/L
  incorporation by the MbPyIRS/tRNACUA pair (myoglobin-his6 purified by Ni-NTA chromatography): incorporated
MbPyIRS/tRNACUA pair; on increasing the concentration of 2 7.5 fold, Western blot against his-6 in cell lysates
  increase in yield of protein containing 2: 5 fold
[1]
  labeling of genetically encoded alkyne with azides that introduce biotin or fluorescent groups: specifically and efficiently labeled

## O=C(O)C(F)(F)F.[N-]=[N+]=NCCOC(=O)NCCCC[C@H](N)C(=O)O [compound 3, (S)-2-amino-6-((2-azidoethoxy)carbonylamino)hexanoic acid TFA salt]
MbPyIRS/tRNACUA pair
  yield of full-length myoglobin-his6 purified by Ni-NTA chromatography: 3 mg/L
